Converted amounts (≈) assume the structure as drawn. Bridge positions count the residues as written; N and C are the ends. Square brackets hold non-standard residues; d marks the D form. Ends that are not written are not given here. Peptide text beside a SMILES is read from it. Dab = NCC[C@H](N)C(=O)O
How the values were obtained:
[1] = test system: Botrytis cinerea
[2] = test system: B. cinerea; assay: Drop inoculation assay on detached Nicotiana benthamiana leaves (semi-in planta); type: in vivo, Botrytis cinerea; conditions: 48 h
[3] = test system: Colletotrichum gloeosporioides
[4] = test system: Cercospora sojina
[5] = test system: Alternaria alternata

Compound: C[C@@H](O)[C@H](NC(=O)[C@H](CS)NC(=O)[C@H](Cc1c[nH]c2ccccc12)NC(=O)[C@H](CS)NC(=O)[C@H](CCCNC(=N)N)NC(=O)[C@H](Cc1ccccc1)NC(=O)[C@H](CC(=O)O)NC(=O)[C@H](CC(=O)O)NC(=O)[C@H](CCCNC(=N)N)NC(=O)[C@H](CS)NC(=O)[C@H](CCCNC(=N)N)NC(=O)CN)C(=O)N[C@@H](CCCCN)C(=O)N[C@@H](CC(N)=O)C(=O)N[C@@H](CS)C(=O)O [GMA1C, reference compound] (H-GRCRDDFRCWCTKNC-OH; N-terminus assumed)
- MIC (μM) (SFM + 2 mM CaCl2) [1]: >12 µM
- MIC (μM) (SFM + 100 mM KCl) [1]: >12 µM
- MIC (μM) (SFM + 100 mM NaCl) [1]: >12 µM
- MIC (μM) SFM [1]: >12 µM

Compound: CC[C@H](C)[C@H](NC(=O)[C@H](CCCNC(=N)N)NC(=O)[C@H](CS)NC(=O)[C@H](CCCNC(=N)N)NC(=O)CNC(=O)[C@@H](N)CO)C(=O)N[C@@H](CC(C)C)C(=O)N[C@@H](Cc1ccccc1)C(=O)N[C@@H](CCCNC(=N)N)C(=O)N[C@@H](CS)C(=O)N[C@@H](Cc1ccccc1)C(=O)N[C@@H](CS)C(=O)N[C@H](C(=O)N[C@@H](CCCCN)C(=O)N[C@@H](CC(N)=O)C(=O)N[C@@H](CS)C(N)=O)[C@@H](C)O [GMA1C_V1] (H-SGRCRILFRCFCTKNC-NH2; N-terminus assumed)
- MIC (μM) (SFM + 100 mM KCl) [1]: >12 µM
- MIC (μM) (SFM + 100 mM NaCl) [1]: >6 µM
- MIC (μM) SFM [1]: >6 µM

Compound: CC[C@H](C)[C@@H]1NC(=O)[C@H](CCCNC(=N)N)NC(=O)[C@@H](NC(=O)[C@H](CCCNC(=N)N)NC(=O)CNC(=O)[C@@H](N)CO)CSSC[C@@H](C(N)=O)NC(=O)[C@H](CC(N)=O)NC(=O)[C@H](CCCCN)NC(=O)[C@H]([C@@H](C)O)NC(=O)[C@H](Cc2c[nH]c3ccccc23)NC(=O)[C@H](Cc2ccccc2)NC(=O)[C@H](Cc2c[nH]c3ccccc23)NC(=O)[C@H](CCCNC(=N)N)NC(=O)[C@H](Cc2ccccc2)NC(=O)[C@H](CC(C)C)NC1=O [GMA1C_V2] (H-SGRCRILFRWFWTKNC-NH2; disulfide 4-16; N-terminus assumed)
- Gray mold symptoms, drop inoculation assay ([2]; peptide at 1.5 μM): more effective than GMA1C_V1
- Gray mold symptoms, drop inoculation assay ([2]; peptide at 3 μM and 6 μM): completely abrogated gray mold symptoms
- MIC (μM) (SFM + 2 mM CaCl2) [1]: 3 µM
- MIC (μM) (SFM + 100 mM KCl) [1]: >12 µM
- MIC (μM) (SFM + 100 mM NaCl) [1]: 3 µM
- MIC (μM) SFM [1]: 1.5 to 3 µM

Compound: CC[C@H](C)[C@@H]1NC(=O)[C@H](CCCNC(=N)N)NC(=O)[C@@H](NC(=O)[C@H](CCCNC(=N)N)NC(=O)CNC(=O)[C@@H](N)CO)CSSC[C@@H](C(N)=O)NC(=O)[C@H](CC(N)=O)NC(=O)[C@H](CCCCN)NC(=O)[C@H]([C@@H](C)O)NC(=O)[C@H](Cc2ccccc2)NC(=O)[C@H](Cc2ccc(O)cc2)NC(=O)[C@H](Cc2c[nH]c3ccccc23)NC(=O)[C@H](CCCNC(=N)N)NC(=O)[C@H](Cc2ccccc2)NC(=O)[C@H](CC(C)C)NC1=O [GMA1C_V3] (H-SGRCRILFRWYFTKNC-NH2; disulfide 4-16; N-terminus assumed)
- MIC (μM) (SFM + 2 mM CaCl2) [1]: 6 µM
- MIC (μM) (SFM + 100 mM KCl) [1]: >12 µM
- MIC (μM) (SFM + 100 mM NaCl) [1]: 3 µM
- MIC (μM) SFM [1]: 1.5 µM (≈ 3.07 µg/mL)

Compound: C[C@@H](O)[C@H](NC(=O)[C@H](CS)NC(=O)[C@H](Cc1ccccc1)NC(=O)[C@H](CS)NC(=O)[C@H](CCCNC(=N)N)NC(=O)[C@H](CCCNC(=N)N)NC(=O)[C@H](CCCNC(=N)N)NC(=O)[C@H](Cc1ccccc1)NC(=O)CNC(=O)[C@H](CCCNC(=N)N)NC(=O)[C@H](CS)NC(=O)[C@H](CCCNC(=N)N)NC(=O)CN)C(=O)N[C@H](C(=O)N[C@@H](Cc1c[nH]cn1)C(=O)N[C@@H](CS)C(N)=O)[C@@H](C)O [GMA4AC, reference compound] (H-GRCRGFRRRCFCTTHC-NH2)
- MIC, Colletotrichum gloeosporioides [3]: >12 µM
- MIC, Cercospora sojina [4]: >12 µM
- MIC, Alternaria alternata [5]: >12 µM

Compound: C[C@@H](O)[C@H](NC(=O)[C@H](CS)NC(=O)[C@H](Cc1ccccc1)NC(=O)[C@H](CS)NC(=O)[C@H](CCCNC(=N)N)NC(=O)[C@H](CCCNC(=N)N)NC(=O)[C@H](CCCNC(=N)N)NC(=O)[C@H](Cc1ccccc1)NC(=O)CNC(=O)[C@H](CCCNC(=N)N)NC(=O)[C@H](CS)NC(=O)[C@H](CCCNC(=N)N)NC(=O)CN)C(=O)N[C@H](C(=O)N[C@@H](Cc1c[nH]cn1)C(=O)N[C@@H](CS)C(N)=O)[C@@H](C)O [GMA4AC] (H-GRCRGFRRRCFCTTHC-NH2)
- MIC (μM) SFM [1]: 3 µM (≈ 5.88 µg/mL)

Compound: N=C(N)NCCC[C@H](NC(=O)CNC(=O)[C@@H](N)Cc1ccccc1)C(=O)N[C@@H](CS)C(=O)N[C@@H](CCCNC(=N)N)C(=O)NCC(=O)N[C@@H](Cc1ccccc1)C(=O)N[C@@H](CCCNC(=N)N)C(=O)N[C@@H](CCCNC(=N)N)C(=O)N[C@@H](CCCNC(=N)N)C(=O)N[C@@H](CS)C(=O)N[C@@H](Cc1ccccc1)C(=O)N[C@@H](CS)C(=O)N[C@@H](Cc1c[nH]c2ccccc12)C(=O)N[C@@H](CCCNC(=N)N)C(=O)N[C@@H](Cc1c[nH]c2ccccc12)C(=O)N[C@@H](CS)C(=O)O [GMA4C_V4] (H-FGRCRGFRRRCFCWRWC-OH; N-terminus assumed)
- B. cinerea MIC [1]: 1.5 µM
- MIC (μM) Botrytis cinerea [1]: 3 µM (≈ 6.89 µg/mL)
- SFM + 2 mM CaCl2 MIC [1]: 6 µM
- SFM + 100 mM KCl MIC [1]: 3 µM
- SFM + 100 mM NaCl MIC [1]: 3 µM
- SFM MIC [1]: 3 µM

Compound: NCC[C@H](NC(=O)CNC(=O)[C@@H](N)Cc1ccccc1)C(=O)N[C@@H](CS)C(=O)N[C@@H](CCN)C(=O)NCC(=O)N[C@@H](Cc1ccccc1)C(=O)N[C@@H](CCN)C(=O)N[C@@H](CCN)C(=O)N[C@@H](CCN)C(=O)N[C@@H](CS)C(=O)N[C@@H](Cc1ccccc1)C(=O)N[C@@H](CS)C(=O)N[C@@H](Cc1c[nH]c2ccccc12)C(=O)N[C@@H](CCN)C(=O)N[C@@H](Cc1c[nH]c2ccccc12)C(=O)N[C@@H](CS)C(=O)O [GMA4C_V5, FG(Dab)C(Dab)GF(Dab)(Dab)(Dab)CFCW(Dab)WC] (H-FG[Dab]C[Dab]GF[Dab][Dab][Dab]CFCW[Dab]WC-OH; N-terminus assumed)
- B. cinerea MIC [1]: 1.5 µM
- MIC (μM) Botrytis cinerea [1]: 6 µM (≈ 11.8 µg/mL)
- SFM + 2 mM CaCl2 MIC [1]: >6 µM
- SFM + 100 mM KCl MIC [1]: >6 µM
- SFM + 100 mM NaCl MIC [1]: 6 µM
- SFM MIC [1]: 6 µM

Compound: C[C@H](NC(=O)CN)C(=O)N[C@@H](CS)C(=O)N[C@@H](Cc1c[nH]cn1)C(=O)N[C@@H](CCCNC(=N)N)C(=O)N[C@@H](CCC(N)=O)C(=O)NCC(=O)N[C@@H](Cc1ccccc1)C(=O)NCC(=O)N[C@@H](Cc1ccccc1)C(=O)N[C@@H](C)C(=O)N[C@@H](CS)C(=O)N[C@@H](Cc1ccccc1)C(=O)N[C@@H](CS)C(=O)N[C@@H](Cc1ccc(O)cc1)C(=O)N[C@@H](CCCCN)C(=O)N[C@@H](CCCCN)C(=O)N[C@@H](CS)C(N)=O [GMA5CA_WT, reference compound] (H-GACHRQGFGFACFCYKKC-NH2; N-terminus assumed)
- MIC (μM) (SFM + 2 mM CaCl2) [1]: >12 µM
- MIC (μM) (SFM + 100 mM KCl) [1]: >12 µM
- MIC (μM) (SFM + 100 mM NaCl) [1]: >12 µM
- MIC (μM) SFM [1]: 6 µM (≈ 12.2 µg/mL)

Compound: CC(C)C[C@@H]1NC(=O)[C@@H](NC(=O)[C@H](C)NC(=O)CN)CSSC[C@@H](C(=O)N[C@@H](Cc2ccc(O)cc2)C(N)=O)NC(=O)[C@H](Cc2c[nH]cn2)NC(=O)[C@H](CCCNC(=N)N)NC(=O)[C@H](Cc2ccc(O)cc2)NC(=O)[C@H](Cc2ccc(O)cc2)NC(=O)[C@H](Cc2c[nH]c3ccccc23)NC(=O)[C@H](Cc2ccccc2)NC(=O)[C@H](Cc2c[nH]c3ccccc23)NC(=O)CNC(=O)[C@H](Cc2ccc(O)cc2)NC(=O)[C@H](Cc2c[nH]cn2)NC(=O)[C@H](CCCCN)NC(=O)[C@H](CO)NC(=O)[C@H](Cc2c[nH]cn2)NC(=O)[C@H](CCCNC(=N)N)NC(=O)[C@H](CC(N)=O)NC(=O)[C@H](CCCCN)NC1=O [GMAOe1C_V3] (H-GACLKNRHSKHYGWFWYYRHCY-NH2; disulfide 3-21; N-terminus assumed)
- Gray mold symptoms, drop inoculation assay ([2]; peptide at 1.5 μM): more effective than GMAOe1C_V4 or GMAOe1C_WT
- Gray mold symptoms, drop inoculation assay ([2]; peptide at 3 μM and 6 μM): completely abrogated gray mold symptoms
- MIC (μM) (SFM + 2 mM CaCl2) [1]: 3 to 6 µM
- MIC (μM) (SFM + 100 mM KCl) [1]: 6 to 12 µM
- MIC (μM) (SFM + 100 mM NaCl) [1]: 2 to 3 µM
- MIC (μM) SFM [1]: 1.5 µM (≈ 4.31 µg/mL)

Compound: CC(C)C[C@@H]1NC(=O)[C@@H](NC(=O)[C@H](C)NC(=O)CN)CSSC[C@@H](C(=O)N[C@@H](Cc2ccc(O)cc2)C(N)=O)NC(=O)[C@H](Cc2c[nH]cn2)NC(=O)[C@H](CCCNC(=N)N)NC(=O)[C@H](Cc2ccc(O)cc2)NC(=O)[C@H](Cc2ccc(O)cc2)NC(=O)[C@H](Cc2c[nH]c3ccccc23)NC(=O)[C@H](Cc2ccccc2)NC(=O)[C@H](Cc2ccccc2)NC(=O)CNC(=O)[C@H](Cc2ccc(O)cc2)NC(=O)[C@H](Cc2c[nH]cn2)NC(=O)[C@H](CCCCN)NC(=O)[C@H](CO)NC(=O)[C@H](Cc2c[nH]cn2)NC(=O)[C@H](CCCNC(=N)N)NC(=O)[C@H](CC(N)=O)NC(=O)[C@H](CCCCN)NC1=O [GMAOe1C_V4] (H-GACLKNRHSKHYGFFWYYRHCY-NH2; disulfide 3-21; N-terminus assumed)
- Gray mold symptoms, drop inoculation assay ([2]; peptide at 3 μM and 6 μM): completely abrogated gray mold symptoms
- MIC (μM) (SFM + 2 mM CaCl2) [1]: 6 to 12 µM
- MIC (μM) (SFM + 100 mM KCl) [1]: 6 to 12 µM
- MIC (μM) (SFM + 100 mM NaCl) [1]: 6 µM
- MIC (μM) SFM [1]: 1.5 µM (≈ 4.25 µg/mL)

Compound: CC(C)C[C@H](NC(=O)[C@H](CS)NC(=O)[C@H](C)NC(=O)CN)C(=O)N[C@@H](CCCCN)C(=O)N[C@@H](CC(N)=O)C(=O)N[C@@H](CCCNC(=N)N)C(=O)N[C@@H](Cc1c[nH]cn1)C(=O)N[C@@H](CO)C(=O)N[C@@H](CCCCN)C(=O)N[C@@H](Cc1c[nH]cn1)C(=O)N[C@@H](Cc1ccc(O)cc1)C(=O)NCC(=O)N[C@@H](CS)C(=O)N[C@@H](Cc1ccc(O)cc1)C(=O)N[C@@H](CS)C(=O)N[C@@H](Cc1ccc(O)cc1)C(=O)N[C@@H](Cc1ccc(O)cc1)C(=O)N[C@@H](CCCNC(=N)N)C(=O)N[C@@H](Cc1c[nH]cn1)C(=O)N[C@@H](CS)C(=O)N[C@@H](Cc1ccc(O)cc1)C(N)=O [GMAOe1C_WT, reference compound] (H-GACLKNRHSKHYGCYCYYRHCY-NH2; N-terminus assumed)
- Gray mold symptoms, drop inoculation assay ([2]; peptide at 3 μM and 6 μM): only effective at 6 μM
- MIC (μM) (SFM + 2 mM CaCl2) [1]: >12 µM
- MIC (μM) (SFM + 100 mM KCl) [1]: 6 to 12 µM
- MIC (μM) (SFM + 100 mM NaCl) [1]: 3 to 6 µM
- MIC (μM) SFM [1]: 3 µM (≈ 8.18 µg/mL)

Compound: GACLKNRHSKHYGWFWYYRHCY-NH2 (cysteine pairing not given here) [GMAOe1C_V2]
- Gray mold symptoms, drop inoculation assay ([2]; peptide at 3 μM and 6 μM): completely abrogated gray mold symptoms

Source: US20220408731A1, “MODIFIED ANTIMICROBIAL PEPTIDES” (priority 2021, published 2022)
